Data from patent US10947213B1 (Merck Patent GmbH, priority 2015, dated 2021).
pIC50: −log10 of the molar value. Where a name gives a salt, the structure may show the parent alone.

Each compound was assayed against T1, TLR7/NFKb HEK cells (Homo sapiens, UniProt Q9NYK1) (assay: HEK Cell Assay (TLR7/NFKb reporter, Steady-Glo luciferase readout)). Conditions: 30 min compound preincubation, then R*48 agonist for 5 hours, read-out: Potency.
T1 construct: expressed in transfected cells; host or cells: HEK cells (TLR7/NFKb reporter line)
T1 sequence (Q9NYK1 27-1049): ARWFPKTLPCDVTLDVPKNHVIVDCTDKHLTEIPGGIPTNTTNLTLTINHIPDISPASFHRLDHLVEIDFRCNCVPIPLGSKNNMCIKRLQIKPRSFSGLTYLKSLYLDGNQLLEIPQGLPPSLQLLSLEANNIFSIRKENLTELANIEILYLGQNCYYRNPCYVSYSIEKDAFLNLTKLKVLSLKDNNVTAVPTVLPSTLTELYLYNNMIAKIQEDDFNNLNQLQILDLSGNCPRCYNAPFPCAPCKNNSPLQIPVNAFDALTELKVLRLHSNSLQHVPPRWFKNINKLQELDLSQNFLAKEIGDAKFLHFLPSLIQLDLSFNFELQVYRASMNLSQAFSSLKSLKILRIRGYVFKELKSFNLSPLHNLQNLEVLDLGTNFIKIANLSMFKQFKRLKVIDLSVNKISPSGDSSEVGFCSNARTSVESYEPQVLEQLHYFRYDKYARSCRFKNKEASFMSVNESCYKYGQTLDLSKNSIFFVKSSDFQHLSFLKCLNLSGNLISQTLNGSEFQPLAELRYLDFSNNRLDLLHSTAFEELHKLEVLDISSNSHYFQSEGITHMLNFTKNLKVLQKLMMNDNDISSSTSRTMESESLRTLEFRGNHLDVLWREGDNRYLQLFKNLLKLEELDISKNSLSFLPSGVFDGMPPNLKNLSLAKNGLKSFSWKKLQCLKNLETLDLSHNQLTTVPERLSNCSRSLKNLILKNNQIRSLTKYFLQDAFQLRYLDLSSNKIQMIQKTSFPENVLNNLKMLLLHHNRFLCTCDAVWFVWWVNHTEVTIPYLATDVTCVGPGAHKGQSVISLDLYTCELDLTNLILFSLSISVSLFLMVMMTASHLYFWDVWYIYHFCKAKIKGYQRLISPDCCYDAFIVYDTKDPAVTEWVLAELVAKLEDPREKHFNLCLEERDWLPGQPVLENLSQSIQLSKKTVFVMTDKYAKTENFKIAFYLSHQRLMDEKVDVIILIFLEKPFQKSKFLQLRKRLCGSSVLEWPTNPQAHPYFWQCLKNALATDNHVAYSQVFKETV
Type: cell-based
In short: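 Steady-Glo luminescence after 5 h stimulation with R*48 agonist, following 30 min compound preincubation. Assay run in HEK cells carrying a TLR7/NFKb luciferase reporter, plated at 5000 cells/well and grown 24 h at 37° C (10% CO2) before treatment.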

Structure (SMILES)	pIC50
Cc1c(F)cc(N2C[C@@H](C)C[C@@H](N)C2)c2cccnc12 [Compound 488, (3R,5S)-1-(7-Fluoro-8-methyl-quinolin-5-yl)-5-methyl-piperidin-3-ylamine hydrochloride]	> 6.00
Cc1cnc2c(N3C[C@@H](C)C[C@@H](N)C3)ccc(C#N)c2n1 [Compound 525, 8-((3R,5S)-3-Amino-5-methyl-piperidin-1-yl)-3-methyl-quinoxaline-5-carbonitrile]	> 6.00
C[C@H]1C[C@@H](NC(=O)CC2(N)CCCCC2)CN(c2ccc(C(F)(F)F)c3ncccc23)C1 [Compound 483, 2-(1-Amino-cyclohexyl)-N-[(3R,5S)-5-methyl-1-(8-trifluoromethyl-quinolin-5-yl)-piperidin-3-yl]-acetamide]	> 6.00
C[C@H]1C[C@@H](NC2CCN(C)C2=O)CN(c2ccc(C#N)c3nccnc23)C1 (single isomer, unassigned) [Compound 125]	> 6.00
COc1ccc(N2C[C@@H](C)C[C@@H](NC(=O)C(N)C(F)(F)F)C2)c2cccnc12 (single isomer, unassigned) [Compound 192]	5.00 to 6.00
CCN(CC)CC(=O)NCC1CCN(c2ccc(C(F)(F)F)c3ncccc23)CC1 [Compound 443, 2-Diethylamino-N-[1-(8-trifluoromethyl-quinolin-5-yl)-piperidin-4-ylmethyl]-acetamide]	> 6.00
C[C@H]1C[C@@H](NC2CCNC2=O)CN(c2ccc(C#N)c3nccnc23)C1 (stereo partly drawn) [Compound 123, 8-[(3S,5R)-3-methyl-5-[(2-oxopyrrolidin-3-yl)amino]piperidin-1-yl]quinoxaline-5-carbonitrile]	> 6.00
CC(C)[C@H](O)C(=O)N[C@@H]1C[C@H](C(F)(F)F)CN(c2ccnc3nccnc23)C1 [Compound 89, (2S)-2-hydroxy-3-methyl-N-[(3R,5S)-1-[pyrido[2,3-b]pyrazin-8-yl]-5-(trifluoromethyl)piperidin-3-yl]butanamide hydrochloride]	< 5.00
Cc1cc(N2CCC(CNCCN3CCCCC3)CC2)c2cc(F)ccc2n1 [Compound 381, [1-(6-Fluoro-2-methyl-quinolin-4-yl)-piperidin-4-ylmethyl]-(2-piperidin-1-yl-ethyl)-amine]	5.00 to 6.00
CN[C@@H]1C[C@H](C)CN(c2ccnc3nccnc23)C1 [Compound 17, (3R,5S)—N,5-dimethyl-1-(pyrido[2,3-b]pyrazin-8-yl)piperidin-3-amine]	< 5.00
CC(C(=O)N[C@@H]1C[C@H](C)CN(c2ccc(C(F)(F)F)c3ncccc23)C1)N1CCC(O)CC1 (stereo partly drawn) [Compound 289, 2-(4-hydroxypiperidin-1-yl)-N-[(3R,5S)-5-methyl-1-[8-(trifluoromethyl)quinolin-5-yl]piperidin-3-yl]propanamide]	> 6.00
C#CC(=O)N[C@@H]1C[C@H](C)CN(c2ccc(C(F)(F)F)c3ncccc23)C1 [Compound 472, Propynoic acid [(3R,5S)-5-methyl-1-(8-trifluoromethyl-quinolin-5-yl)-piperidin-3-yl]-amide]	> 6.00
CCN(C)CC(=O)NCC1CCN(c2ccc(C#N)c3ncccc23)CC1 [Compound 410, N-[1-(8-Cyano-quinolin-5-yl)-piperidin-4-ylmethyl]-2-(ethyl-methyl-amino)-acetamide]	> 6.00
C[C@H]1C[C@@H](NC(=O)COC(C)(C)C)CN(c2ccc(C#N)c3nccnc23)C1 [Compound 163, 2-(tert-butoxy)-N-[(3R,5S)-1-(8-cyanoquinoxalin-5-yl)-5-methylpiperidin-3-yl]acetamide]	> 6.00
N#Cc1ccc(N2CC(NC(=O)C(N)C3CC3)CC(C(F)(F)F)C2)c2cccnc12 (mixture of isomers) [Compound 486, rac-(R)-2-Amino-N-[(3R,5S)-1-(8-cyano-quinolin-5-yl)-5-trifluoromethyl-piperidin-3-yl]-2-cyclopropyl-acetamide]	> 6.00
C[C@H]1C[C@@H](NC(=O)CN2CC(N)C2)CN(c2ccc(C(F)(F)F)c3ncccc23)C1 [Compound 280, 2-(3-aminoazetidin-1-yl)-N-[(3R,5S)-5-methyl-1-[8-(trifluoromethyl)quinolin-5-yl]piperidin-3-yl]acetamide]	> 6.00
CC(C)[C@H](O)C(=O)NC1CC(C(F)(F)F)CN(c2ccc(C#N)c3nccnc23)C1 (single isomer, unassigned) [Compound 88]	> 6.00

Structure (SMILES)	pIC50
C[C@H]1C[C@@H](NC(=O)CN(C)C)CN(c2ccc(C#N)c3ncncc23)C1 [Compound 447, N-[(3R,5S)-1-(8-Cyano-quinazolin-5-yl)-5-methyl-piperidin-3-yl]-2-dimethylamino-acetamide]	> 6.00
C[C@H]1C[C@@H](NC(=O)CC2CC2(F)F)CN(c2ccc(C(F)F)c3ncccc23)C1 (stereo partly drawn) [Compound 310, 2-(2,2-difluorocyclopropyl)-N-[(3R,5S)-1-[8-(difluoromethyl)quinolin-5-yl]-5-methylpiperidin-3-yl]acetamide]	> 6.00
CN1CCC(NC2CC(C(F)(F)F)CN(c3ccc(C#N)c4nccnc34)C2)C1=O (single isomer, unassigned) [Compound 227]	5.00 to 6.00
CN[C@@H]1C[C@H](C)CN(c2ccc(C#N)c3nccnc23)C1 [Compound 16, 8-((3S,5R)-3-methyl-5-(methylamino)piperidin-1-yl)quinoxaline-5-carbonitrile hydrochloride]	> 6.00
C[C@H]1C[C@@H](N)CN(c2ccc(C(F)F)c3ncccc23)C1 [Compound 68, (3R,5S)-1-[8-(difluoromethyl)quinolin-5-yl]-5-methylpiperidin-3-amine]	> 6.00
C[C@H]1C[C@@H](NC2CCN(C)C2=O)CN(c2ccc(Cl)c3ncccc23)C1 (single isomer, unassigned) [Compound 260]	> 6.00
C[C@H]1C[C@@H](NC(=O)CN2CCOCC2)CN(c2ccc(C#N)c3nccnc23)C1 [Compound 108, N-[(3R,5S)-1-(8-cyanoquinoxalin-5-yl)-5-methylpiperidin-3-yl]-2-(morpholin-4-yl)acetamide]	> 6.00
N#Cc1ccc(N2CCC(C(=O)NCCN3CCCC3)CC2)c2cccnc12 [Compound 422, 1-(8-Cyano-quinolin-5-yl)-piperidine-4-carboxylic Acid (2-pyrrolidin-1-yl-ethyl)-amide]	> 6.00
Cc1ncc(N2C[C@@H](C)C[C@@H](NC(=O)CCC(=O)O)C2)c2cccnc12 [Compound 567, N-[(3R,5S)-5-Methyl-1-(8-methyl-[1,7]naphthyridin-5-yl)-piperidin-3-yl]-succinamic acid]	< 5.00
O=C(CN1CCCCC1)NCC1CCN(c2ccnc3nccnc23)CC1 [Compound 388, 2-Piperidin-1-yl-N-(1-pyrido[2,3-b]pyrazin-8-yl-piperidin-4-ylmethyl)-acetamide]	5.00 to 6.00
N#Cc1ccc(N2C[C@H](NC(=O)C3CCN(C4CC4)CC3)C[C@H](C(F)(F)F)C2)c2cccnc12 [Compound 578, 1-Cyclopropyl-piperidine-4-carboxylic acid [(3R,5S)-1-(8-cyano-quinolin-5-yl)-5-trifluoromethyl-piperidin-3-yl]-amide]	> 6.00
COC(C)C(=O)N[C@@H]1C[C@H](C)CN(c2ccc(C#N)c3nccnc23)C1 (single isomer, unassigned) [Compound 159]	5.00 to 6.00
CC(C(=O)N[C@@H]1C[C@H](C)CN(c2ccc(C(F)F)c3ncccc23)C1)N1CC(N)C1 (stereo partly drawn) [Compound 305, 2-(3-aminoazetidin-1-yl)-N-[(3R,5S)-1-[8-(difluoromethyl)quinolin-5-yl]-5-methylpiperidin-3-yl]propanamide]	> 6.00
C[C@H]1C[C@@H](N)CN(c2ccc(F)c3ncccc23)C1 [Compound 341, (3R,5S)-1-(8-fluoroquinolin-5-yl)-5-methylpiperidin-3-amine]	> 6.00
Cc1ncc(N2C[C@@H](C)C[C@@H](N)C2)c2cccnc12 [Compound 553, (3R,5S)-5-methyl-1-(8-methyl-1,7-naphthyridin-5-yl)piperidin-3-amine]	> 6.00
C[C@H]1C[C@@H](NC(=O)CN(C)C)CN(c2ccc(F)c3ncccc23)C1 [Compound 469, 2-Dimethylamino-N-[(3R,5S)-1-(8-fluoro-quinolin-5-yl)-5-methyl-piperidin-3-yl]-acetamide]	5.00 to 6.00
C[C@H]1C[C@@H](NC(=O)CC(C)(C)C)CN(c2ccc(C(N)=O)c3ncccc23)C1 [Compound 182, 5-[(3R,5S)-3-(3,3-dimethylbutanamido)-5-methylpiperidin-1-yl]quinoline-8-carboxamide]	5.00 to 6.00
